Laboratory results as given in US5763404A, “Methods for using LHRH antagonists with low histamine release” (priority 1995, dated 1998).
Like-named read-outs stand apart in the source and are kept apart here. Non-standard residues stand in square brackets, D forms with d. Residues, ends and D or L forms follow the SMILES beside them. *: point of attachment. dPhe(4-Cl) = N[C@H](Cc1ccc(Cl)cc1)C(=O)O; d2Nal = N[C@H](Cc1ccc2ccccc2c1)C(=O)O; Lys(iPr) = CC(C)NCCCC[C@H](N)C(=O)O; d3Pal = N[C@H](Cc1cccnc1)C(=O)O; Nicotinoyl = O=C(c1cccnc1)*; Picolinoyl = O=C(c1ccccn1)*

How the values were obtained:
anaesthesized rats [1] = assay: wheal test, intradermal injection; assay type: in vivo, rat; set-up: Wheal (wheal response): unit not given here; conditions: for Wheal (wheal response): Table XIV and text, unit not given
Outline: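 Anaesthetized rats given intradermal injection of 10 ug peptide in 100 ul saline; area of the wheal calculated from its diameter.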

rat mast cells = assay: in vitro histamine release test; assay type: cell-based; conditions: for In Vitro Histamine Release ED50: rat mast cells, ± SEM
Procedure: The antiovulatory activity, AOA, in rats was determined as described by Humphries et al. (12). Antiovulation assays were performed by counting, on estrus, the number of ova shed by 4-day cycling rats after a single sc injection of the LH-RH analogue in corn oil was administered between 12 and 12:30 p.m. on […]. The control rats received 0.3 mL of the vehicle. The wheal test was performed by intradermally injecting 10 ug of peptide in 100 ul of saline into anaesthesized rats, measuring the ideally circular wheal response and calculating the area. The in vitro histamine release test was done as described by Karten et al. (4). A suspension of rat mast cells was added to increasing concentrations of peptide and the mixture was incubated for a few minutes followed by centrifugation to collect the histamine in the supernatant. A PIPES (piperazine-N,N'-bis[2-ethanesulfonic acid]) medium buffered at pH 7.4 containing NaCl 119 mM, KCl 5 mM, PIPES 25 mM, NaOH 40 mM, glucose 5.6 mM, CaCl2 1 mM, and 0.1% bovine serum albumin was used. This was designated as PIPES AC. Peptides were dissolved in double distilled H2 O at a concentration of 2 mg/ml and stored at -20° C. They were thawed just prior to testing, diluted in PIPES AC and prewarmed for five minutes at 37° C. Peptides studied were stable to heating at 56° C. for two hours, and to freezing and thawing.
Peritoneal cells were collected from male Sprague-Dawley rats weighing 200 to 250 gm and purchased from Harlan (Madison, Wis.). After euthanasia by CO2, the peritoneal cavity was washed with 50 ml PIPES AC medium containing 20 units of heparin. Following centrifugation at 200×g for eight minutes at 4° C., cells were washed again and finally resuspended to a concentration of 8 to 24×10^5 total leukocytes/ml in PIPES AC. This suspension contained approximately 5-10% mast cells. Washed cells were used immediately after collection and were prewarmed for five minutes at 37° C. prior to pipetting 0.25 ml aliquots into 12×75 mm polystyrene tubes containing 0.25 ml of diluted peptide. Mixtures were incubated for 15 minutes at 37° C. and the reaction stopped by centrifugation at 400×g for 15 minutes at 4° C. The cell supernatants were assayed for histamine content by the automated fluorometric assay procedure. See, Siraganian, R. P., "An automated continuous flow system for the extraction and fluorometric analysis of histamine." Anal. Biochem. 57:383 (1974); and Siraganian, R. P. and Hook, W. A., "Histamine release and assay methods for the study of human allergy," In Manual of Clinical Immunology, 3rd ed., N. R. Rose, H. Friedman, and J. L. Fahey (Eds.), Amer. Soc. for Microbiology, Washington (1986) p. 808.

anaesthesized rats [2] = conditions: From Reference 1; cited from earlier work
26 days old female rats = assay: oral activity: serum LH and FSH after agonist [D-Qal^6]-LHRH; assay type: in vivo, rat; conditions: for LH: 2 hours before 10 ng agonist; for FSH / Serum LH: -2 hr, agonist 10 ng sc, +2 hours
Procedure: For the determination of duration of action, the antagonist was administered s.c. or orally to 26 days old female rats at a specific time before administration of the agonist, [D-Qal^6 ]-LHRH. The serum levels of rat luteinizing hormone (LH) and rat follicle stimulating hormone (FSH) were then measured 2 hours after the agonist administration by RIA. The oral administration was done through force-feeding with feeding tubes.

rats = conditions: reported in ref. 16, cited from earlier work

CC(=O)N[C@H](Cc1ccc2ccccc2c1)C(=O)N[C@H](Cc1ccc(Cl)cc1)C(=O)N[C@H](Cc1cccnc1)C(=O)N[C@@H](CO)C(=O)N[C@@H](CCCCNC(=O)c1cccnc1)C(=O)N[C@H](CCCCNC(=O)c1cccnc1)C(=O)N[C@@H](CC(C)C)C(=O)N[C@@H](CCCCNC(C)C)C(=O)N1CCC[C@H]1C(=O)N[C@H](C)C(N)=O [Antide, [N-Ac-D-2-Nal^1, D-pClPhe^2, D-3-Pal^3, NicLys^5, D-NicLys^6, ILys^8, D-Ala^10]-LHRH] (Ac-[d2Nal][dPhe(4-Cl)][d3Pal]SK(Nicotinoyl)[dK](Nicotinoyl)L[Lys(iPr)]P[dA]-NH2)
Wheal (anaesthesized rats [1]; Table I, 10 ug peptide intradermally): 132.7 mm^2 /10 | Wheal (wheal response) (anaesthesized rats [1]): 132.7 | histamine release (in words) (rat mast cells): released remarkably little histamine

CC(=O)N[C@H](Cc1ccc2ccccc2c1)C(=O)N[C@H](Cc1ccc(Cl)cc1)C(=O)N[C@H](Cc1cccnc1)C(=O)N[C@@H](CO)C(=O)N[C@@H](CCCCNC(=O)c1ccccn1)C(=O)N[C@H](CCCCNC(=O)c1ccccn1)C(=O)N[C@@H](CC(C)C)C(=O)N[C@@H](CCCCNC(C)C)C(=O)N1CCC[C@H]1C(=O)N[C@H](C)C(N)=O [IBR 25147, [N-Ac-D-2-Nal^1,D-pClPhe^2,D-3-Pal^3,PicLys^5,D-PicLys^6, ILys^8,D-Ala^10]-LHRH] (Ac-[d2Nal][dPhe(4-Cl)][d3Pal]SK(Picolinoyl)[dK](Picolinoyl)L[Lys(iPr)]P[dA]-NH2)
Wheal (wheal response) (anaesthesized rats [1]): 123.0 | Wheal Area (anaesthesized rats [2]): 123 ± 0 mm^2 /10 μg

[N-Ac-D-2-Nal^1,D-4-F-Phe^2,D-Trp^3,D-Arg^6 ]-LHRH
In Vitro Histamine Release ED50 (rat mast cells): 0.17 mg/L | In Vitro Histamine Release ED50 (rat mast cells; listed as [N-Ac-D-2-Nal^1,D-pFPhe^2,D-Trp^3,D-Arg^6 ]-LHRH): about 0.17 μg/ml | In Vitro Histamine Release ED50 (rat mast cells; listed as standard compound): 0.1 to 0.2 mg/L | ED 50 (histamine release), starred test series (rat mast cells; test series in which the standard compound had ED 50 0.46 instead of the usual 0.1-0.2): 0.46 mg/L

[N-Ac-D-pClPhe^1,2,D-Trp^3,D-Arg^6,D-Ala^10 ]-LHRH [VIII-25]
LH (26 days old female rats; oral 30 ug): 39 ± 6 ng/mL | LH (26 days old female rats; oral 100 ug): 26 ± 7 ng/mL | FSH (26 days old female rats; oral in water 10 μg): 1794 ± 329 ng/mL | Serum LH (26 days old female rats; oral in water 10 μg): 59 ± 11 ng/mL | FSH (26 days old female rats; oral in water 30 μg): 1470 ± 190 ng/mL | Serum LH (26 days old female rats; oral in water 30 μg): 39 ± 6 ng/mL | FSH (26 days old female rats; oral in water 100 μg): 1161 ± 277 ng/mL | Serum LH (26 days old female rats; oral in water 100 μg): 26 ± 7 ng/mL | rats ovulated/total rats (rats; oral dose 500 ug): 9/11 | rats ovulated/total rats (rats; oral dose 1000 ug): 4/11 | rats ovulated/total rats (rats; oral dose 2000 ug): 0/11
